# Results: PubChem BioAssay AID296 (DTP/NCI, 2004)
# Records with an inconclusive call do not appear. Where a SMILES comes first, the peptide text is derived from it. Bridges are numbered along the chain shown (N, C = ends). Roman numbers before positions name the chains, in order. [ ]: non-standard residue; d: D form. The star is where a group is joined. Quinoxaline2carbonyl = O=C(c1cnc2ccccc2n1)*; NMeV = CN[CH](C(=O)O)C(C)C; NMeC = CN[CH](CS)C(=O)O
# System: MX-1 breast xenograft, nude mice, tumor weight T/C
# Experiment: NCI In Vivo Anticancer Drug Screen. Data for tumor model Human Mammary Carcinoma MX-1 Xenograft (intrarenal inoculation) in NU/NU Swiss (nude) mice
# Settings: endpoint: mean tumor weight change, higher = larger tumour
# Procedure, shortened: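 Antitumour effect measured in vivo against vehicle controls, expressed as T/C.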
# [1] = dose: 8.0 mg/kg/injection, schedule: Q04DX003 (sc), vehicle: saline
# [2] = dose: 16.0 mg/kg/injection, schedule: Q04DX003 (sc), vehicle: saline
# [3] = dose: 50.0 mg/kg/injection, schedule: Q01DX010 (sc), vehicle: Klucel (hydroxypropylcellulose) (HPC)
# [4] = dose: 100.0 mg/kg/injection, schedule: Q01DX010 (sc), vehicle: Klucel (hydroxypropylcellulose) (HPC)
# [5] = dose: 150.0 mg/kg/injection, schedule: Q04DX003 (sc), vehicle: saline with Tween-80
# [6] = dose: 300.0 mg/kg/injection, schedule: Q04DX003 (sc), vehicle: saline with Tween-80
# [7] = dose: 600.0 mg/kg/injection, schedule: Q04DX003 (sc), vehicle: saline with Tween-80
# [8] = dose: 1200.0 mg/kg/injection, schedule: Q04DX003 (sc), vehicle: saline with Tween-80
# [9] = dose: 300.0 mg/kg/injection, schedule: Q04DX003 (sc), vehicle: saline
# [10] = dose: 600.0 mg/kg/injection, schedule: Q04DX003 (sc), vehicle: saline
# [11] = dose: 1200.0 mg/kg/injection, schedule: Q04DX003 (sc), vehicle: saline
compound,measurement,setting,value
O=C(O)C1CSCN1 (stereo not given),T/C,"dose: 50.0 mg/kg/injection, schedule: Q01DX010 (sc), vehicle: water",176 % of control
CCCCCCCCNc1cc2c3c(c1)CCCN3CCC2,T/C,"dose: 3.0 mg/kg/injection, schedule: Q04DX003 (sc), vehicle: Klucel (hydroxypropylcellulose) (HPC)",110 % of control
same,T/C,"dose: 6.0 mg/kg/injection, schedule: Q04DX003 (sc), vehicle: Klucel (hydroxypropylcellulose) (HPC)",74 % of control
same,T/C,"dose: 12.0 mg/kg/injection, schedule: Q04DX003 (sc), vehicle: Klucel (hydroxypropylcellulose) (HPC)",108 % of control
same,T/C,"dose: 24.0 mg/kg/injection, schedule: Q04DX003 (sc), vehicle: Klucel (hydroxypropylcellulose) (HPC)",51 % of control
"CC1NC(=O)C(NC(=O)c2cnc3ccccc3n2)COC(=O)C(C(C)C)N(C)C(=O)C2CSSCC(C(=O)N(C)C(C(C)C)C(=O)OCC(NC(=O)c3cnc4ccccc4n3)C(=O)NC(C)C(=O)N2C)N(C)C1=O (stereo not given) (I: Quinoxaline2carbonyl-SA[NMeC][NMeV] / II: Quinoxaline2carbonyl-SA[NMeC][NMeV]; ester I:1-II:C, I:C-II:1; disulfide I:3-II:3; configuration not given here)",T/C,"dose: 100.0 micrograms/kg/injection, schedule: Q04DX003 (sc), vehicle: Klucel (hydroxypropylcellulose) (HPC)",63 % of control
same,T/C,"dose: 200.0 micrograms/kg/injection, schedule: Q04DX003 (sc), vehicle: Klucel (hydroxypropylcellulose) (HPC)",62 % of control
same,T/C,"dose: 400.0 micrograms/kg/injection, schedule: Q04DX003 (sc), vehicle: Klucel (hydroxypropylcellulose) (HPC)",73 % of control
same,T/C,"dose: 800.0 micrograms/kg/injection, schedule: Q04DX003 (sc), vehicle: Klucel (hydroxypropylcellulose) (HPC)",46 % of control
CC[C@@]1(O)C(=O)OCc2c1cc1n(c2=O)Cc2cc3cc(O)ccc3nc2-1,T/C,[1],-98 % of control
same,T/C,[2],-100 % of control
same,T/C,"dose: 32.0 mg/kg/injection, schedule: Q04DX003 (sc), vehicle: saline",-100 % of control
same,T/C,"dose: 32.0 mg/kg/injection, schedule: Q04DX003 (sc), vehicle: suspension in saline",-100 % of control
same,T/C,"dose: 64.0 mg/kg/injection, schedule: Q04DX003 (sc), vehicle: saline",-100 % of control
same,T/C,"dose: 64.0 mg/kg/injection, schedule: Q04DX003 (sc), vehicle: suspension in saline",-100 % of control
same,T/C,"dose: 128.0 mg/kg/injection, schedule: Q04DX003 (sc), vehicle: suspension in saline",-100 % of control
C[C@]12C=CC(=O)C=C1CC[C@@H]1[C@@H]2[C@@H](O)C[C@@]2(C)[C@H]1CC[C@]2(O)C(=O)CO,T/C,"dose: 12.5 mg/kg/injection, schedule: Q01DX010 (sc), vehicle: Klucel (hydroxypropylcellulose) (HPC)",50 % of control
same,T/C,"dose: 25.0 mg/kg/injection, schedule: Q01DX010 (sc), vehicle: Klucel (hydroxypropylcellulose) (HPC)",67 % of control
same,T/C,[3],55 % of control
same,T/C,[4],24 % of control
C/C(=N\NC(=S)N1CC2CCC(CC2)C1)c1cccc(C)n1,T/C,"dose: 50.0 mg/kg/injection, schedule: Q04DX003 (ip), vehicle: saline with Tween-80",79 % of control
CC(=O)O[C@H]1C(=O)[C@@]2(C)[C@H]([C@H](OC(=O)c3ccccc3)[C@]3(O)C[C@H](OC(=O)[C@H](O)[C@@H](NC(=O)c4ccccc4)c4ccccc4)C(C)=C1C3(C)C)[C@]1(OC(C)=O)CO[C@@H]1C[C@@H]2O,T/C,"dose: 2.5 mg/kg/injection, schedule: Q01DX010 (sc), vehicle: Klucel (hydroxypropylcellulose) (HPC)",83 % of control
same,T/C,"dose: 5.0 mg/kg/injection, schedule: Q01DX010 (sc), vehicle: Klucel (hydroxypropylcellulose) (HPC)",77 % of control
same,T/C,"dose: 10.0 mg/kg/injection, schedule: Q01DX010 (sc), vehicle: Klucel (hydroxypropylcellulose) (HPC)",46 % of control
same,T/C,"dose: 20.0 mg/kg/injection, schedule: Q01DX010 (sc), vehicle: Klucel (hydroxypropylcellulose) (HPC)",73 % of control
same,T/C,"dose: 40.0 mg/kg/injection, schedule: Q01DX010 (sc), vehicle: Klucel (hydroxypropylcellulose) (HPC)",48 % of control
same,T/C,"dose: 80.0 mg/kg/injection, schedule: Q01DX010 (sc), vehicle: Klucel (hydroxypropylcellulose) (HPC)",36 % of control
same,T/C,"dose: 400.0 mg/kg/injection, schedule: Q01DX010 (sc), vehicle: Klucel (hydroxypropylcellulose) (HPC)",6 % of control
C1CN2CCC1CC2,T/C,"dose: 4.69 mg/kg/injection, schedule: Q04DX003 (sc), vehicle: saline with Tween-80",112 % of control
same,T/C,"dose: 9.38 mg/kg/injection, schedule: Q04DX003 (sc), vehicle: saline with Tween-80",93 % of control
COc1cccc(C2NC(=O)c3c(n[nH]c3N)S2)c1O (stereo not given),T/C,[5],50 % of control
same,T/C,[6],62 % of control
same,T/C,[7],77 % of control
same,T/C,[8],117 % of control
OCC1OC(n2cnc3c2NC=NC[C@H]3O)CC1O (stereo not given in full),T/C,"dose: 1.0 mg/kg/injection, schedule: Q01DX010 (sc), vehicle: water",124 % of control
same,T/C,"dose: 2.0 mg/kg/injection, schedule: Q01DX010 (sc), vehicle: water",41 % of control
same,T/C,"dose: 8.0 mg/kg/injection, schedule: Q01DX010 (sc), vehicle: water",28 % of control
COc1cccc2c1C(=O)c1c(O)c3c(c(O)c1C2=O)C[C@@](O)(C(=O)CO)C[C@@H]3OC1CC(N)C(OC)C(C)O1 (stereo not given in full),T/C,"dose: 1.5 mg/kg/injection, schedule: Q01DX010 (sc), vehicle: saline",54 % of control
COc1ccc2[nH]c3ccc4cc[n+](CCN5CCC(C6CCN(CC[n+]7ccc8ccc9[nH]c%10ccc(OC)cc%10c9c8c7)CC6)CC5)cc4c3c2c1,T/C,"dose: 200.0 mg/kg/injection, schedule: Q04DX003 (sc), vehicle: Klucel (hydroxypropylcellulose) (HPC)",108 % of control
same,T/C,"dose: 400.0 mg/kg/injection, schedule: Q04DX003 (sc), vehicle: Klucel (hydroxypropylcellulose) (HPC)",80 % of control
same,T/C,"dose: 800.0 mg/kg/injection, schedule: Q04DX003 (sc), vehicle: Klucel (hydroxypropylcellulose) (HPC)",99 % of control
same,T/C,"dose: 1600.0 mg/kg/injection, schedule: Q04DX003 (sc), vehicle: Klucel (hydroxypropylcellulose) (HPC)",80 % of control
COc1ccc(OC)c(/C=C/c2ccnc3ccccc23)c1,T/C,[5],96 % of control
same,T/C,[6],91 % of control
same,T/C,[7],96 % of control
same,T/C,[8],96 % of control
COC(=O)C(F)C(Br)C(=O)OC (stereo not given),T/C,"dose: 18.75 mg/kg/injection, schedule: Q04DX003 (sc), vehicle: saline with Tween-80",52 % of control
same,T/C,"dose: 37.5 mg/kg/injection, schedule: Q04DX003 (sc), vehicle: saline with Tween-80",49 % of control
same,T/C,"dose: 75.0 mg/kg/injection, schedule: Q04DX003 (sc), vehicle: saline with Tween-80",59 % of control
C=CCOCC1CO1 (stereo not given),T/C,[9],72 % of control
COC(=O)C(N)Cc1ccc(O)c(O)c1 (stereo not given),T/C,[9],106 % of control
same,T/C,[10],101 % of control
same,T/C,[11],105 % of control
Cc1c(N)nc(C(CC(N)=O)NCC(N)C(N)=O)nc1C(=O)NC(C(=O)NC(C)C(O)CC(=O)NC(C(=O)NC(OC1OC(C)C(N)C(O)C1O)C(O)c1nc(-c2nc(C(=O)NCCCC(N)CC(=O)NCCCNCCCCN)cs2)cs1)C(C)O)C(OC1OC(CO)C(O)C(O)C1OC1OC(CO)C(O)C(OC(N)=O)C1O)c1cnc[nH]1 (stereo not given),T/C,[1],47 % of control
same,T/C,[2],40 % of control
CC(=O)OCc1cc(=O)n(C)c2c3c4c(cc12)c(C)cc(=O)n4CO3,T/C,[3],120 % of control
same,T/C,[4],92 % of control
O=C1OC(=O)[C@H]2[C@@H]1[C@H]1C=C[C@@H]2OC1=O,T/C,"dose: 25.0 mg/kg/injection, schedule: Q04DX003 (sc), vehicle: suspension in saline",83 % of control
same,T/C,"dose: 50.0 mg/kg/injection, schedule: Q04DX003 (sc), vehicle: suspension in saline",101 % of control
same,T/C,"dose: 100.0 mg/kg/injection, schedule: Q04DX003 (sc), vehicle: suspension in saline",89 % of control
same,T/C,"dose: 150.0 mg/kg/injection, schedule: Q04DX003 (sc), vehicle: suspension in saline",91 % of control
same,T/C,"dose: 200.0 mg/kg/injection, schedule: Q04DX003 (sc), vehicle: suspension in saline",90 % of control
same,T/C,"dose: 300.0 mg/kg/injection, schedule: Q04DX003 (sc), vehicle: suspension in saline",109 % of control
same,T/C,"dose: 600.0 mg/kg/injection, schedule: Q04DX003 (sc), vehicle: suspension in saline",89 % of control
N#CC(OC1OC(COC2OC(CO)C(O)C(O)C2O)C(O)C(O)C1O)c1ccccc1 (stereo not given),T/C,[9],67 % of control
same,T/C,[10],83 % of control
same,T/C,[11],71 % of control
same,T/C,"dose: 2400.0 mg/kg/injection, schedule: Q04DX003 (sc), vehicle: saline",75 % of control
COC1=C(OC)C(=O)C(C/C=C(\C)CC/C=C(\C)CC/C=C(\C)CC/C=C(\C)CC/C=C(\C)CC/C=C(\C)CC/C=C(\C)CC/C=C(\C)CC/C=C(\C)CCC=C(C)C)=C(C)C1=O,T/C,"dose: 400.0 mg/kg/injection, schedule: Q01DX010 (sc), vehicle: saline with Tween-80",153 % of control
same,T/C,"dose: 800.0 mg/kg/injection, schedule: Q01DX010 (sc), vehicle: saline with Tween-80",118 % of control
